One experiment has as its system A. fumigatus hyphae. The experiment is described as follows: In vitro fungal killing assay (hyphal coincubation) with murine neutrophils. The format is cell-based, Aspergillus fumigatus. The settings on record: IL-6/23-stimulated, inhibitor 20 μM, FIG. 6D. The text has this:
Aspergillus strains—For cornea infections and in vitro fungal killing assays, an RFP expressing strain of A. fumigatus (Af-dsRed) was used. This strain is gpdA promoter driven to constitutively express monomeric dsRed. For subcutaneous “priming” injections, heat-killed, swollen conidia Aspergillus fumigatus strain Af-BP was used. For the Aspergillus hyphal extract used in ROS assay, A. fumigatus strain Af-BP hyphae were pulverized in liquid nitrogen, filtered through a 30 μm pre-separation filter (Miltenyi Biotec) and protein measured by the BCA method (Pierce). Aspergillus hyphal extracts (AspHE) were stored at −20° C. and used at a final concentration of 1 mg/ml.
A hyphal coincubation assay was used to study the ability of murine and human neutrophils to inhibit A. fumigatus hyphal growth as described. Briefly, 12,500 A. fumigatus dsRed expressing conidia (strain Af-dsRed) per 200 μl Sabouraud dextrose media were added to wells of black-walled 96 well plates with an optically clear bottom (CoStar 3720). After 6 h, the conidia had germinated and the hyphae became adherent to the wells, at which time the medium was removed.
(§1) Murine and human neutrophils were incubated with p-STAT3 (20 μM Stattic or 20 μM INC424) or RORγt inhibitors (20 μM SR1001) for 2 h. Then the cells were stimulated with […] of rIL-6 and 2 μg/ml of rIL-23 for 3 h, washed, and 2×10^5 bone marrow-derived murine neutrophils or 10^5 human peripheral blood neutrophils, with or without recombinant IL-17A, were added to each well with growing hyphae. RPMI media was used as positive control (unimpaired growth), and PBS was used as a negative control (no growth (data not shown)). After 16 h the wells were washed with PBS and the dsRed fungal mass was quantified in a 96-well fluorometer at 550/600 nm excitation/emission filter (Synergy HT, Biotek).

For another experiment, the system named is RORγt. The experiment is described as follows: RORγt nuclear translocation in IL-6/23-stimulated human neutrophils (nuclear extract western blot, confocal). The format is cell-based. As for the experimental part: (§2) Neutrophils were isolated from peripheral blood of healthy donors. Peripheral blood was incubated in 3% Dextran, and neutrophils isolated by Ficoll gradient centrifugation (Fisher Scientific), with neutrophil purity determined by staining with Wright-Giemsa.
Murine or human neutrophils were suspended at a density of 10^6 cells/ml and incubated with […] of recombinant mouse or human IL-6 and 2 μg/ml IL-23 in RPMI, and the cells were maintained for 1-3 h at 37° C. in 5% CO2. Various inhibitors were used for assessing STAT3 activation. For STAT3, neutrophils were treated with either the STAT3-SH2 inhibitor, Stattic (20 μM) obtained from Tocris, or the JAK-1, 2 inhibitor, INC424, (aka Ruxolitinib; 20 μM (Selleck BioChem)). For the determination of RORγt-dependent signaling, SR1001 (20 μM; Sigma) was used, which inhibits RORγt binding to the IL-17 promoter site. All inhibitors were added to neutrophils 2 h prior to recombinant IL-6 and IL-23 stimulation. […]
Neutrophils collected from primed or naïve C57BL/6 mice or unstimulated murine or human neutrophils were incubated with recombinant IL-6 and IL-23 for 60 min. […] Total protein was quantified using the BCA method, denatured with 2× Laemmli buffer (Sigma) and heated to 95° C. for 5 minutes. […] Ten μg of total protein was analyzed on a 12% SDS polyacrylamide gel, and transferred to nitrocellulose. […]

In another experiment the test system is IL-17RC. As to the kind of experiment: IL-17RC gene expression by qPCR in IL-6/23-stimulated human neutrophils. The format is cell-based. The settings on record: IL-6/23 1 h, FIG. 6B. As for the experimental part:
as §2
Murine or human neutrophils were suspended at a density of 10^6 cells/ml and incubated with […] of recombinant mouse or human IL-6 and 2 μg/ml IL-23 in RPMI, and the cells were maintained for 1-3 h at 37° C. in 5% CO2. Various inhibitors were used for assessing STAT3 activation. For STAT3, neutrophils were treated with either the STAT3-SH2 inhibitor, Stattic (20 μM) obtained from Tocris, or the JAK-1, 2 inhibitor, INC424, (aka Ruxolitinib; 20 μM (Selleck BioChem)). For the determination of RORγt-dependent signaling, SR1001 (20 μM; Sigma) was used, which inhibits RORγt binding to the IL-17 promoter site. All inhibitors were added to neutrophils 2 h prior to recombinant IL-6 and IL-23 stimulation.
Neutrophil and corneal cell RNA was extracted using the RNeasy mini kit according to the manufacturer's directions (Qiagen, Valencia, Calif.). The quality of RNA was checked by spectrophotometry, and only samples with a 260/280 ratio of 2.0 were used to generate cDNA. The SuperScript First Strand synthesis system (Invitrogen) was used to generate cDNA according to the manufacturer's directions.
The SYBR green system (Applied Biosystems, Carlsbad, Calif.) was utilized for quantitative PCR (qPCR) using ABI Biosystems. PCR products were then run on a 1% agarose gel, and visualized using ethidium bromide. PCR products were compared to Actb (encoding the β-actin gene) or GAPDH as the controls for gel loading.
Background: Quantitative PCR measures a nucleic acid by following its amplification.

The test system of experiment [1] is human peripheral blood neutrophils. As to the kind of experiment: ROS production (CFDA) by human peripheral blood neutrophils incubated with Aspergillus hyphae. The format is cell-based. The settings on record: IL-6/23-stimulated, inhibitor 20 μM, FIG. 6E. As for the experimental part: as §1
In vitro ROS production measured by CFDA was previously described. Briefly, 100 μg/100 μl of A. fumigatus hyphal extract (AspHE) were incubated with 2×10^5 murine or human neutrophils. Neutrophils were treated for 1 h with 1 μM Carboxyfluorescein diacetate (H2CFDA (Sigma)), which will fluoresce following ROS oxidation. Neutrophils were collected and analyzed by flow cytometry. H2CFDA pulsed neutrophils that had not been incubated with AspHE were used to set the ROS histogram gate. The average mean intensity was calculated by Accuri flow software and graphed in Prism.

Turning to `O=[N+]([O-])c1ccc2c(c1)S(=O)(=O)C=C2` [Stattic], the hyphal killing activity entry in the experiment on A. fumigatus hyphae (plus rIL-17A) is reported as “enhanced hyphal killing activity was detected”. Further, the “hyphal growth (fluorescent fungal mass)” value in the experiment on A. fumigatus hyphae (without rIL-17A) is “did not further impede hyphal growth”. Further, in the experiment with RORγt, the “RORγt localisation by confocal microscopy” value was “only detected in the cytoplasm”. For the same compound, in the experiment with RORγt (western blot, FIG. 5B), the “RORγt in nuclear extracts” value is “no longer detectable”. Further, the IL-17RC expression result in the experiment with IL-17RC is “did not inhibit”. Further, the ROS production entry in experiment [1] (plus rhIL-17A) was “increased ROS”; in experiment [1] (without rhIL-17A), “no increase in ROS”.

The values are drawn from US9814720B2, “Compositions and methods of inhibiting IL-17 expression of neutrophils” (priority 2014, dated 2017).
